Reference: patent US20250281464A1, “TREATMENT OF PATHOGENIC NEISSERIA SP. INFECTION WITH TRIAZOLE ANTIFUNGAL AGENTS” (Virginia Tech Intellectual Properties, Inc., priority 2022, published 2025)
In brackets after ≈: the same amount, converted by molar mass. Where two headings read alike, the source gives them in different places.

What was measured:
[1] = tested on: N. gonorrhoeae isolates; experiment: MIC against panel of N. gonorrhoeae clinical isolates; type: cell-based, Neisseria gonorrhoeae; conditions: for MIC50 / MIC90: Neisseria gonorrhoeae; for MIC50: read-out: MIC50; for MIC90: read-out: MIC90
[2] = tested on: L. crispatus; experiment: MIC against commensal vaginal Lactobacillus strains; type: cell-based, Lactobacillus crispatus; conditions: for MIC: Lactobacillus crispatus; for MIC Range: Table 6, L. crispatus (3 strains)
From the text: (§1) N. gonorrhoeae pathogenesis greatly depends on colonization of the reproductive tract. One of the natural barriers of such colonization is an intact healthy microbiome. Species of lactobacilli present in the genitourinary tract play a significant role in hindering colonization by Neisseria(1).
(§2) A healthy vaginal microbiome that is dominated by Lactobacillus spp. is less susceptible to N. gonorrhoeae infection and other sexually transmitted diseases (STDs). […] We tested the activity of azoles against important members of healthy vaginal microbiota that inhibit N. gonorrhoeae colonization.

[3] = tested on: L. gasseri; experiment: as above; type: cell-based, Lactobacillus gasseri; conditions: for MIC: Lactobacillus gasseri; for MIC Range: Table 6, L. gasseri (4 strains)
From the text: as §1, §2

[4] = tested on: L. jensenii; experiment: as above; type: cell-based, Lactobacillus jensenii; conditions: for MIC: Lactobacillus jensenii; for MIC Range: Table 6, L. jensenii (7 strains)
From the text: as §1, §2

[5] = tested on: L. johnsonii; experiment: as above; type: cell-based, Lactobacillus johnsonii; conditions: for MIC: Lactobacillus johnsonii, L. johnsonii HM-643; for MIC Range: Table 6, L. johsonii (2 strains)
From the text: as §1, §2

[6] = tested on: N. gonorrhoeae; experiment: Post-antibiotic effect (PAE) against N. gonorrhoeae; type: cell-based, Neisseria gonorrhoeae; conditions: 1 h exposure at 10×MIC
From the text: Determining the PAE of a new antimicrobial is an important step for dosing and has clinical importance.

[7] = MIC against normal gut microbiota; type: cell-based
From the text: (§3) Disrupting the intestinal microbiota using broad-spectrum antimicrobial therapy increases the susceptibility of hosts to C. difficile colonization.

[8] = tested on: Bacteroides dorei; experiment: MIC against normal gut microbiota; type: cell-based; conditions: Bacteroides dorei (2 strains)
From the text: as §3

[9] = tested on: Bacteroides fragilis; experiment: MIC against normal gut microbiota; type: cell-based; conditions: Bacteroides fragilis (4 strains)
From the text: as §3

[10] = tested on: Bifidobacterium angulatum; experiment: MIC against normal gut microbiota; type: cell-based; conditions: Bifidobacterium angulatum (1 strain)
From the text: as §3

[11] = tested on: Enterococcus faecalis; experiment: MIC against normal gut microbiota; type: cell-based; conditions: Enterococcus faecalis (1 strain)
From the text: as §3

[12] = tested on: Enterococcus faecium; experiment: MIC against normal gut microbiota; type: cell-based; conditions: Enterococcus faecium (1 strain)
From the text: as §3

[13] = tested on: Escherichia coli; experiment: MIC against normal gut microbiota; type: cell-based; conditions: Escherichia coli (1 strain)
From the text: as §3

[14] = tested on: Lactobacillus brevis; experiment: MIC against normal gut microbiota; type: cell-based; conditions: Lactobacillus brevis (1 strain)
From the text: as §3

[15] = tested on: Lactobacillus casei; experiment: MIC against normal gut microbiota; type: cell-based; conditions: Lactobacillus casei (1 strain)
From the text: as §3

[16] = tested on: Lactobacillus rhamnosus; experiment: MIC against normal gut microbiota; type: cell-based; conditions: Lactobacillus rhamnosus (1 strain)
From the text: as §3

[17] = tested on: Staphylococcus aureus; experiment: MIC against normal gut microbiota; type: cell-based; conditions: Staphylococcus aureus (1 strain)
From the text: as §3

[18] = tested on: N. meingitidis; experiment: MIC against Neisseria spp.; type: cell-based, Neisseria meningitidis; conditions: N. meingitidis (5 strains)
[19] = tested on: N. flavescens; experiment: MIC against Neisseria spp.; type: cell-based; conditions: N. flavescens (1 strain)
From the text: (§4) Intrigued by the specificity and potent activity of azoles against N. gonorrhoeae, we evaluated the extent of the azoles' antibacterial activity against other Neisseria species (Table 8).

[20] = tested on: N. lactamica; experiment: MIC against Neisseria spp.; type: cell-based; conditions: N. lactamica (1 strain)
From the text: as §4

[21] = tested on: N. mucosa; experiment: MIC against Neisseria spp.; type: cell-based; conditions: N. mucosa (1 strain)
From the text: as §4

[22] = tested on: resistant N. gonorrhoeae isolates; experiment: MIC against resistant N. gonorrhoeae isolates by agar dilution; type: cell-based, Neisseria gonorrhoeae
[23] = tested on: commensal vaginal lactobacilli strains; experiment: MIC against all commensal vaginal Lactobacillus strains tested; type: cell-based, Lactobacillus spp.; conditions: all species/strains of Lactobacillus tested (Example 2); read-out: MIC
From the text: as §1, §2

[24] = Table 1, 104 N. gonorrhoeae isolates
[25] = Table 3, 103 N. gonorrhoeae isolates with different resistance profiles
[26] = Bacteroides adolescentis (2 strains)

CCC(C)n1ncn(-c2ccc(N3CCN(c4ccc(OCC5COC(Cn6cncn6)(c6ccc(Cl)cc6Cl)O5)cc4)CC3)cc2)c1=O (stereo not drawn) [Itraconazole]
MIC50 [1, 24]: 1 µg/mL (≈ 1.42 µM)
MIC90 [1, 24]: 2 µg/mL (≈ 2.83 µM)
MIC50 [1, 25]: 1 µg/mL (≈ 1.42 µM)
MIC90 [1, 25]: 2 µg/mL (≈ 2.83 µM)
MIC Range [1, 24]: 0.03 to 4 µg/mL
MIC Range [1, 25]: 0.03 to 8 µg/mL
MIC ([2]; L. crispatus HM-103): > 256 µg/mL
MIC ([2]; L. crispatus HM-371): > 256 µg/mL
MIC ([2]; L. crispatus HM-638): > 256 µg/mL
MIC Range [2]: ≥256 µg/mL
MIC ([3]; L. gasseri HM-407): > 256 µg/mL
MIC ([3]; L. gasseri HM-642): > 256 µg/mL
MIC ([3]; L. gasseri HM-644): > 256 µg/mL
MIC ([3]; L. gasseri HM-647): > 256 µg/mL
MIC Range [3]: ≥256 µg/mL
MIC ([4]; L. jensenii HM-105): > 256 µg/mL
MIC ([4]; L. jensenii HM-372): > 256 µg/mL
MIC ([4]; L. jensenii HM-374): > 256 µg/mL
MIC ([4]; L. jensenii HM-639): > 256 µg/mL
MIC ([4]; L. jensenii HM-640): > 256 µg/mL
MIC ([4]; L. jensenii HM-645): > 256 µg/mL
MIC ([4]; L. jensenii HM-646): > 256 µg/mL
MIC Range [4]: ≥256 µg/mL
MIC [5]: > 256 µg/mL
MIC Range [5]: ≥256 µg/mL
PAE ([6]; strain FA 1090): 4 h
PAE ([6]; strain WHO P): 4 h
PAE ([6]; strain WHO Y): 4 h
MIC Range [7, 26]: >256 µg/mL
MIC Range ([7]; Bacteroides breve (2 strains)): >256 µg/mL
MIC Range ([7]; Bacteroides longum (2 strains)): >256 µg/mL
MIC Range [8]: >256 µg/mL
MIC Range [9]: >256 µg/mL
MIC Range [10]: >256 µg/mL
MIC Range [11]: >256 µg/mL
MIC Range [12]: >256 µg/mL
MIC Range [13]: >256 µg/mL
MIC Range [14]: >256 µg/mL
MIC Range [15]: >256 µg/mL
MIC Range [16]: >256 µg/mL
MIC Range [17]: >256 µg/mL
MIC Range [18]: 0.125 to 1 µg/mL
MIC Range [19]: 64 µg/mL (≈ 90.7 µM)
MIC Range [20]: 4 µg/mL (≈ 5.67 µM)
MIC Range [21]: 64 µg/mL (≈ 90.7 µM)

CC[C@H]1OC(=O)[C@H](C)[C@@H](O[C@H]2C[C@@](C)(OC)[C@@H](O)[C@H](C)O2)[C@H](C)[C@@H](O[C@@H]2O[C@H](C)C[C@H](N(C)C)[C@H]2O)[C@](C)(O)C[C@@H](C)CN(C)[C@H](C)[C@@H](O)[C@]1(C)O [Azithromycin]
MIC50 [1, 24]: 1 µg/mL (≈ 1.34 µM)
MIC90 [1, 24]: 4 µg/mL (≈ 5.34 µM)
MIC50 [1, 25]: 1 µg/mL (≈ 1.34 µM)
MIC90 [1, 25]: 4 µg/mL (≈ 5.34 µM)
MIC Range [1, 24]: 0.03 to 512 µg/mL
MIC Range [1, 25]: 0.03 to 512 µg/mL
MIC ([22]; strain CDC-174, agar dilution): 1 µg/mL (≈ 1.34 µM)
MIC ([22]; strain CDC-179, agar dilution): 8 µg/mL (≈ 10.7 µM)
MIC ([22]; strain CDC-181, agar dilution): 256 µg/mL (≈ 342 µM)
MIC ([22]; strain WHO-L, agar dilution): 0.5 µg/mL (≈ 0.668 µM)
MIC ([22]; strain WHO-X, agar dilution): 0.5 µg/mL (≈ 0.668 µM)
MIC ([22]; strain WHO-Y, agar dilution): 1 µg/mL (≈ 1.34 µM)
MIC ([22]; strain WHO-Z, agar dilution): 1 µg/mL (≈ 1.34 µM)
MIC ([2]; L. crispatus HM-103): 1 µg/mL (≈ 1.34 µM)
MIC ([2]; L. crispatus HM-371): 2 µg/mL (≈ 2.67 µM)
MIC ([2]; L. crispatus HM-638): 1 µg/mL (≈ 1.34 µM)
MIC Range [2]: ≤1 µg/mL
MIC ([3]; L. gasseri HM-407): ≤ 0.5 µg/mL
MIC ([3]; L. gasseri HM-642): 2 µg/mL (≈ 2.67 µM)
MIC ([3]; L. gasseri HM-644): 2 µg/mL (≈ 2.67 µM)
MIC ([3]; L. gasseri HM-647): 1 µg/mL (≈ 1.34 µM)
MIC Range [3]: ≤1 µg/mL
MIC ([4]; L. jensenii HM-105): ≤ 0.5 µg/mL
MIC ([4]; L. jensenii HM-372): 1 µg/mL (≈ 1.34 µM)
MIC ([4]; L. jensenii HM-374): 1 µg/mL (≈ 1.34 µM)
MIC ([4]; L. jensenii HM-639): 1 µg/mL (≈ 1.34 µM)
MIC ([4]; L. jensenii HM-640): ≤ 0.5 µg/mL
MIC ([4]; L. jensenii HM-645): 1 µg/mL (≈ 1.34 µM)
MIC ([4]; L. jensenii HM-646): 2 µg/mL (≈ 2.67 µM)
MIC Range [4]: ≤1 µg/mL
MIC [5]: 2 µg/mL (≈ 2.67 µM)
MIC Range [5]: ≤1 µg/mL
MIC [23]: < 1 µg/mL
PAE ([6]; strain FA 1090): 6 h
PAE ([6]; strain WHO P): 8 h
PAE ([6]; strain WHO Y): 4 h
MIC Range [7, 26]: 0.015 µg/mL (≈ 0.02 µM)
MIC Range ([7]; Bacteroides breve (2 strains)): 0.03 to 0.06 µg/mL
MIC Range ([7]; Bacteroides longum (2 strains)): 0.25 µg/mL (≈ 0.334 µM)
MIC Range [8]: 4 to 16 µg/mL
MIC Range [10]: 0.03 µg/mL (≈ 0.0401 µM)
MIC Range [11]: 2 µg/mL (≈ 2.67 µM)
MIC Range [12]: 0.25 µg/mL (≈ 0.334 µM)
MIC Range [13]: 2 µg/mL (≈ 2.67 µM)
MIC Range [14]: 1 µg/mL (≈ 1.34 µM)
MIC Range [15]: 0.5 µg/mL (≈ 0.668 µM)
MIC Range [16]: 1 µg/mL (≈ 1.34 µM)
MIC Range [17]: 0.25 µg/mL (≈ 0.334 µM)
MIC Range [19]: 2 µg/mL (≈ 2.67 µM)
MIC Range [20]: 2 µg/mL (≈ 2.67 µM)
MIC Range [21]: 2 µg/mL (≈ 2.67 µM)
